Usually MIC stands for the smallest concentration in the dilution series that meets the test's criterion for growth inhibition.

The source made the active and inactive calls.

This passage reports Activity and MIC results from ChEMBL document CHEMBL1151457, “Colistin heteroresistance in acinetobacter and its association with previous colistin therapy” (Antimicrob Agents Chemother, 2008).

Assay type in all cases: functional, organism-based
In assay [1] the test system is Acinetobacter. Nature of the assay: Antibacterial activity against heteroresistant Acinetobacter baumannii-calcoaceticus complex isolated from total cumulative patients preexposed to 325 to 900 mg of drug after 20 to 24 hrs by broth microdilution method.
Assay [2] concerns Acinetobacter. Nature of the assay: Antimicrobial activity against heteroresistant-Acinetobacter baumannii-calcoaceticus complex isolated from patients after 20 to 24 hrs by broth microdilution method.
Assay [3] relates to Acinetobacter. Nature of the assay: Antibacterial activity against heteroresistant Acinetobacter baumannii-calcoaceticus complex isolated from total cumulative patients preexposed to 325 to 900 mg of drug assessed as colony forming unit at 8 ug/ml after 20 to 24 hrs by broth microdilution method.
The test system of assay [4] is Acinetobacter. The assay is described as follows: Antibacterial activity against Acinetobacter baumannii-calcoaceticus complex assessed as colony forming unit at 8 ug/ml after 20 to 24 hrs by broth microdilution method.
For assay [5], the system named is Acinetobacter. Nature of the assay: Antibacterial activity against heteroresistant Acinetobacter baumannii-calcoaceticus complex isolated from total cumulative patients preexposed to 325 to 900 mg of drug at 2 ug/ml after 20 to 24 hrs by broth microdilution method.
Assay [6] has as its system Acinetobacter. Nature of the assay: Antibacterial activity against heteroresistant Acinetobacter baumannii-calcoaceticus complex isolated from total cumulative patients preexposed to 325 to 900 mg of drug at 4 ug/ml after 20 to 24 hrs by broth microdilution method.
Assay [7] deals with Acinetobacter. The assay is described as follows: Antibacterial activity against heteroresistant Acinetobacter baumannii-calcoaceticus complex isolated from total cumulative patients preexposed to 325 to 900 mg of drug measured after two passages with 8 ug/ml of drug on sheep blood plates by broth microdilution method.
Assay [8] deals with Acinetobacter. Nature of the assay: Antimicrobial activity against susceptible-Acinetobacter baumannii-calcoaceticus complex isolated from patients after 20 to 24 hrs by broth microdilution method.

Take GENTAMICIN: the result in assay [1] was Active.
Regarding `CC1(C)[C@H](C(=O)O)N2C(=O)C[C@H]2S1(=O)=O`, in assay [1], the result was Active.
For the compound COLISTIN, the figures for the MIC in assay [2], in assay [7] and in assay [8] were above 8 µg/mL, above 16 µg/mL and below 1 µg/mL, respectively. For the same compound, the values for the Activity in assay [3] and in assay [4] were 0.000211% and 5.3e-05%, respectively. For the same compound, the result in assay [5] and in assay [6] was inactive.
